Measurements from patent publication US11793849B2, “Method of Chinese herbal medicine extract used for treating multiple diseases caused by drug resistant bacteria infection” (priority 2016, dated 2023).
Read-outs that look alike come from different tables or passages of the source.

Tested on: MDRAB
Experiment: Checkerboard assay (combined-use MIC, FIC)
Assay type: cell-based, Acinetobacter baumannii
Details: for FIC, all strains / MIC50 of the antibiotic after combined use / MIC90 of the antibiotic after combined use / reduction of the antibiotic's MIC50 vs single use / reduction of the antibiotic's MIC90 vs single use / share of strains with FIC ≤ 0.5: 20 MDRABs; for MIC: Acinetobacter baumannii, read-out: single-use MIC
Description: Test methods of the sensibilization effects of the test product to similar antibiotics: it is operated by referring to a checkerboard assay recommended by NCCLS.
The checkerboard assay is performed in a 96-pore sterile culture plate.
Calculation of a Fractional Inhibitory Concentration (FIC): FIC=S20b combined-use MIC/S20b single-use MIC+antibiotic combined-use MIC/antibiotic single-use MIC. By calculating the FIC, the combined antibacterial interaction between the EA and the antibiotic is evaluated, with synergistic effect for FIC≤0.5, additive effect for 0.5<FIC≤1, indifferent effect for 1<FIC≤2 and antagonistic effect for FIC>2. According to a sterile growth pore, the optimum concentration ratio between the EA and the antibiotic is founded out. At last, the effect of the EA to strengthen the efficacy of the antibiotic is evaluated.

[1] = antibiotic with 60% ethanol extract
[2] = antibiotic with 95% ethanol extract
[3] = antibiotic with EA (10% ethanol extract)
[4] = antibiotic with EA (water extract)

SMILES: C[C@H]1COc2c(N3CCN(C)CC3)c(F)cc3c(=O)c(C(=O)O)cn1c23 [LVX, Levofloxacin]
- FIC, all strains [1]: ≤ 2
- MIC50 of the antibiotic after combined use [1]: 4 µg/mL
- MIC90 of the antibiotic after combined use [1]: 8 µg/mL
- reduction of the antibiotic's MIC50 vs single use [1]: 50%
- reduction of the antibiotic's MIC90 vs single use [1]: 75%
- share of strains with FIC ≤ 0.5 [1]: 5%
- FIC, all strains [2]: ≤ 2
- MIC50 of the antibiotic after combined use [2]: 4 µg/mL
- MIC90 of the antibiotic after combined use [2]: 8 µg/mL
- reduction of the antibiotic's MIC50 vs single use [2]: 50%
- reduction of the antibiotic's MIC90 vs single use [2]: 75%
- share of strains with FIC ≤ 0.5 [2]: 20%
- FIC, all strains [3]: ≤ 2
- MIC50 of the antibiotic after combined use [3]: 4 µg/mL
- MIC90 of the antibiotic after combined use [3]: 8 µg/mL
- reduction of the antibiotic's MIC50 vs single use [3]: 50%
- reduction of the antibiotic's MIC90 vs single use [3]: 75%
- share of strains with FIC ≤ 0.5 [3]: 25%
- FIC, all strains [4]: ≤ 2
- MIC50 of the antibiotic after combined use [4]: 2 µg/mL
- MIC90 of the antibiotic after combined use [4]: 8 µg/mL
- reduction of the antibiotic's MIC50 vs single use [4]: 75%
- reduction of the antibiotic's MIC90 vs single use [4]: 75%
- share of strains with FIC ≤ 0.5 [4]: 35%
- MIC (strain A1, EA=10% ethanol extract): 0.5 µg/mL
- MIC (strain A1, EA=60% ethanol extract): 0.5 µg/mL
- MIC (strain A2, EA=10% ethanol extract): 16 µg/mL
- MIC (strain A2, EA=60% ethanol extract): 16 µg/mL
- MIC (strain A3, EA=10% ethanol extract): 16 µg/mL
- MIC (strain A3, EA=60% ethanol extract): 16 µg/mL
- MIC (strain A4, EA=10% ethanol extract): 0.5 µg/mL
- MIC (strain A4, EA=60% ethanol extract): 0.5 µg/mL
- MIC (strain A5, EA=10% ethanol extract): 4 µg/mL
- MIC (strain A5, EA=60% ethanol extract): 4 µg/mL
- MIC (strain A6, EA=10% ethanol extract): 8 µg/mL
- MIC (strain A6, EA=60% ethanol extract): 8 µg/mL
- MIC (strain A7, EA=10% ethanol extract): 8 µg/mL
- MIC (strain A7, EA=60% ethanol extract): 8 µg/mL
- MIC (strain A8, EA=10% ethanol extract): 4 µg/mL
- MIC (strain A8, EA=60% ethanol extract): 4 µg/mL
- MIC (strain A9, EA=10% ethanol extract): 4 µg/mL
- MIC (strain A9, EA=60% ethanol extract): 4 µg/mL
- MIC (strain A10, EA=10% ethanol extract): 32 µg/mL
- MIC (strain A10, EA=60% ethanol extract): 32 µg/mL
- MIC (strain A11, EA=10% ethanol extract): 4 µg/mL
- MIC (strain A11, EA=60% ethanol extract): 4 µg/mL
- MIC (strain A12, EA=10% ethanol extract): 32 µg/mL
- MIC (strain A12, EA=60% ethanol extract): 32 µg/mL
- MIC (strain A13, EA=10% ethanol extract): 32 µg/mL
- MIC (strain A13, EA=60% ethanol extract): 32 µg/mL
- MIC (strain A14, EA=10% ethanol extract): 16 µg/mL
- MIC (strain A14, EA=60% ethanol extract): 16 µg/mL
- MIC (strain A15, EA=10% ethanol extract): 32 µg/mL
- MIC (strain A15, EA=60% ethanol extract): 32 µg/mL
- MIC (strain A16, EA=10% ethanol extract): 8 µg/mL
- MIC (strain A16, EA=60% ethanol extract): 8 µg/mL
- MIC (strain A17, EA=10% ethanol extract): 16 µg/mL
- MIC (strain A17, EA=60% ethanol extract): 16 µg/mL
- MIC (strain A18, EA=10% ethanol extract): 8 µg/mL
- MIC (strain A18, EA=60% ethanol extract): 8 µg/mL
- MIC (strain A19, EA=10% ethanol extract): 16 µg/mL
- MIC (strain A19, EA=60% ethanol extract): 16 µg/mL
- MIC (strain A20, EA=10% ethanol extract): 16 µg/mL
- MIC (strain A20, EA=60% ethanol extract): 16 µg/mL
- combined-use MIC (strain A1, EA (10% ethanol extract) + LVX combined): 0.0625 µg/mL
- combined-use MIC (strain A1, EA (60% ethanol extract) + LVX combined): 0.0625 µg/mL
- combined-use MIC (strain A1, EA (P. clypearia 95% ethanol extract) combined with LVX): 0.25 µg/mL
- combined-use MIC (strain A1, EA (water extract) with LVX): 0.0625 µg/mL
- combined-use MIC (strain A2, EA (10% ethanol extract) + LVX combined): 8 µg/mL
- combined-use MIC (strain A2, EA (60% ethanol extract) + LVX combined): 16 µg/mL
- combined-use MIC (strain A2, EA (P. clypearia 95% ethanol extract) combined with LVX): 8 µg/mL
- combined-use MIC (strain A2, EA (water extract) with LVX): 16 µg/mL
- combined-use MIC (strain A3, EA (10% ethanol extract) + LVX combined): 2 µg/mL
- combined-use MIC (strain A3, EA (60% ethanol extract) + LVX combined): 0.0625 µg/mL
- combined-use MIC (strain A3, EA (P. clypearia 95% ethanol extract) combined with LVX): 2 µg/mL
- combined-use MIC (strain A3, EA (water extract) with LVX): 2 µg/mL
- combined-use MIC (strain A4, EA (10% ethanol extract) + LVX combined): 0.0625 µg/mL
- combined-use MIC (strain A4, EA (60% ethanol extract) + LVX combined): 0.0625 µg/mL
- combined-use MIC (strain A4, EA (P. clypearia 95% ethanol extract) combined with LVX): 0.0625 µg/mL
- combined-use MIC (strain A4, EA (water extract) with LVX): 0.0625 µg/mL
- combined-use MIC (strain A5, EA (10% ethanol extract) + LVX combined): 2 µg/mL
- combined-use MIC (strain A5, EA (60% ethanol extract) + LVX combined): 4 µg/mL
- combined-use MIC (strain A5, EA (water extract) with LVX): 1 µg/mL
- combined-use MIC (strain A6, EA (10% ethanol extract) + LVX combined): 4 µg/mL
- combined-use MIC (strain A6, EA (60% ethanol extract) + LVX combined): 4 µg/mL
- combined-use MIC (strain A6, EA (P. clypearia 95% ethanol extract) combined with LVX): 4 µg/mL
- combined-use MIC (strain A6, EA (water extract) with LVX): 4 µg/mL
- combined-use MIC (strain A7, EA (10% ethanol extract) + LVX combined): 4 µg/mL
- combined-use MIC (strain A7, EA (60% ethanol extract) + LVX combined): 4 µg/mL
- combined-use MIC (strain A7, EA (P. clypearia 95% ethanol extract) combined with LVX): 4 µg/mL
- combined-use MIC (strain A7, EA (water extract) with LVX): 4 µg/mL
- combined-use MIC (strain A8, EA (10% ethanol extract) + LVX combined): 2 µg/mL
- combined-use MIC (strain A8, EA (60% ethanol extract) + LVX combined): 4 µg/mL
- combined-use MIC (strain A8, EA (P. clypearia 95% ethanol extract) combined with LVX): 2 µg/mL
- combined-use MIC (strain A8, EA (water extract) with LVX): 4 µg/mL
- combined-use MIC (strain A9, EA (10% ethanol extract) + LVX combined): 0.0625 µg/mL
- combined-use MIC (strain A9, EA (60% ethanol extract) + LVX combined): 0.0625 µg/mL
- combined-use MIC (strain A9, EA (P. clypearia 95% ethanol extract) combined with LVX): 0.0625 µg/mL
- combined-use MIC (strain A9, EA (water extract) with LVX): 0.0625 µg/mL
- combined-use MIC (strain A10, EA (10% ethanol extract) + LVX combined): 8 µg/mL
- combined-use MIC (strain A10, EA (60% ethanol extract) + LVX combined): 0.0625 µg/mL
- combined-use MIC (strain A10, EA (P. clypearia 95% ethanol extract) combined with LVX): 2 µg/mL
- combined-use MIC (strain A10, EA (water extract) with LVX): 8 µg/mL
- combined-use MIC (strain A11, EA (10% ethanol extract) + LVX combined): 2 µg/mL
- combined-use MIC (strain A11, EA (60% ethanol extract) + LVX combined): 4 µg/mL
- combined-use MIC (strain A11, EA (P. clypearia 95% ethanol extract) combined with LVX): 4 µg/mL
- combined-use MIC (strain A11, EA (water extract) with LVX): 2 µg/mL
- combined-use MIC (strain A12, EA (10% ethanol extract) + LVX combined): 8 µg/mL
- combined-use MIC (strain A12, EA (60% ethanol extract) + LVX combined): 1 µg/mL
- combined-use MIC (strain A12, EA (P. clypearia 95% ethanol extract) combined with LVX): 1 µg/mL
- combined-use MIC (strain A12, EA (water extract) with LVX): 2 µg/mL
- combined-use MIC (strain A13, EA (10% ethanol extract) + LVX combined): 8 µg/mL
- combined-use MIC (strain A13, EA (60% ethanol extract) + LVX combined): 0.0625 µg/mL
- combined-use MIC (strain A13, EA (P. clypearia 95% ethanol extract) combined with LVX): 2 µg/mL
- combined-use MIC (strain A13, EA (water extract) with LVX): 8 µg/mL
- combined-use MIC (strain A14, EA (10% ethanol extract) + LVX combined): 8 µg/mL
- combined-use MIC (strain A14, EA (60% ethanol extract) + LVX combined): 8 µg/mL
- combined-use MIC (strain A14, EA (P. clypearia 95% ethanol extract) combined with LVX): 8 µg/mL
- combined-use MIC (strain A14, EA (water extract) with LVX): 8 µg/mL
- combined-use MIC (strain A15, EA (10% ethanol extract) + LVX combined): 16 µg/mL
- combined-use MIC (strain A15, EA (60% ethanol extract) + LVX combined): 0.0625 µg/mL
- combined-use MIC (strain A15, EA (P. clypearia 95% ethanol extract) combined with LVX): 2 µg/mL
- combined-use MIC (strain A15, EA (water extract) with LVX): 0.0625 µg/mL
- combined-use MIC (strain A16, EA (10% ethanol extract) + LVX combined): 4 µg/mL
- combined-use MIC (strain A16, EA (60% ethanol extract) + LVX combined): 4 µg/mL
- combined-use MIC (strain A16, EA (P. clypearia 95% ethanol extract) combined with LVX): 4 µg/mL
- combined-use MIC (strain A16, EA (water extract) with LVX): 2 µg/mL
- combined-use MIC (strain A17, EA (10% ethanol extract) + LVX combined): 4 µg/mL
- combined-use MIC (strain A17, EA (60% ethanol extract) + LVX combined): 4 µg/mL
- combined-use MIC (strain A17, EA (P. clypearia 95% ethanol extract) combined with LVX): 4 µg/mL
- combined-use MIC (strain A17, EA (water extract) with LVX): 8 µg/mL
- combined-use MIC (strain A18, EA (10% ethanol extract) + LVX combined): 4 µg/mL
- combined-use MIC (strain A18, EA (60% ethanol extract) + LVX combined): 4 µg/mL
- combined-use MIC (strain A18, EA (P. clypearia 95% ethanol extract) combined with LVX): 4 µg/mL
- combined-use MIC (strain A18, EA (water extract) with LVX): 1 µg/mL
- combined-use MIC (strain A19, EA (10% ethanol extract) + LVX combined): 2 µg/mL
- combined-use MIC (strain A19, EA (60% ethanol extract) + LVX combined): 8 µg/mL
- combined-use MIC (strain A19, EA (P. clypearia 95% ethanol extract) combined with LVX): 8 µg/mL
- combined-use MIC (strain A19, EA (water extract) with LVX): 8 µg/mL
- combined-use MIC (strain A20, EA (10% ethanol extract) + LVX combined): 4 µg/mL
- combined-use MIC (strain A20, EA (60% ethanol extract) + LVX combined): 8 µg/mL
- combined-use MIC (strain A20, EA (P. clypearia 95% ethanol extract) combined with LVX): 8 µg/mL
- combined-use MIC (strain A20, EA (water extract) with LVX): 4 µg/mL
- combined-use MIC (strain AS, EA (P. clypearia 95% ethanol extract) combined with LVX): 2 µg/mL
